According to paper PMC10733349, “Synthesis and in-vitro anti-proliferative with antimicrobial activity of new coumarin containing heterocycles hybrids” (Scientific Reports, 2023):
Values after ≈ are worked out from the molar mass of the structure shown. Values joined by “and” are separate entries in the source; they are usually repeats but may differ in a detail not shown here. Equal values may be shown once.

Assays:
[1] = tested on: A549 cell line; assay: MTT anti-proliferative assay, A549; type: cell-based, Human; details: for IC50: Homo sapiens, A549, 48 h, A549, MTT, 2 days; for Selective index: SI = IC50 normal cells (WISH)/IC50 A549
Description: (§1) Cell lines; WISH cell line (Human amnion-derived normal epithelial cells, CCL-25), MDA-MB-231 cell line (Human, mammary gland/breast adenocarcinoma, HTB-26), CaCo-2 cell line (Human Colorectal adenocarcinoma, epithelial cells, HTB-37), A549 cell line (Human Lung adenocarcinoma, epithelial cells, CCL-185) cell lines and HepG-2 (liver hepatocellular carcinoma, HEPG2, HB-8065) were obtained from ATCC, originally with license and serial numbers as mentioned.
(§2) The safety assays of coumarin hybrids on noncancerous cell lines and their anticancer effects on cancerous cells were gauged utilizing MTT-assay (Promega) in accordance with the instruction protocol. Starting from 60 to 200 µM, serial dilutions of coumarin hybrids were prepared in sterile DMSO to be treated cell lines at final concentrations 30 to 100 µM. The treated cells were incubated for 2 days, and the cellular cytotoxicity was detected by quantifying the solubilized formazan in DMSO at 570 nm. The inhibition concentration of 50 (IC50) was calculated from the cytotoxicity% curve using GraphPad prism 9.
(§3) Cancer cell selectivity index of Coumarin hybrids samples were measured as explained by, with a minor modification; (SI = IC50nc/IC50cc), where IC50nc refers to the value of IC50 of the coumarin hybrids compounds on normal cells, while IC50cc refers to the IC50 of the coumarin hybrids compounds on cancer cell line.

[2] = tested on: Escherichia coli; assay: Antimicrobial microplate assay (MIC), E. coli; type: cell-based; details: two values per compound
Description: (§4) Microbial strains: Escherichia coli, pseudomonas aeruginosa, Staphylococcus aureus, Streptococcus mutans and Candida albicans were collected from the microbial culture collection of Biopharmaceutical Products Research Department, Genetic Engineering and Biotechnology Research Institute, SRTA-City, New Borg El-Arab city, Alexandria, Egypt.
(§5) The antimicrobial activity of coumarin hybrids samples were checked against different multiple drug resistant microorganisms (Escherichia coli, pseudomonas aeruginosa, Staphylococcus aureus and Streptococcus mutans and Candida albicans) using various concentrations (30 to 100 µM). An aliquot of 100.0 µl of each sample concentration was added to an equal volume of each microbial growth dilution (about 10^6 CFU/ml) and inoculated into 96 well plate. Furthermore, 100.0 µl of LB media was added to 100.0 µl of microbial growth to set as the negative control group. After that, the inoculated plates were incubated overnight at 37 °C then, the microbial turbidity was measured using automated ELIZA microplate reader (BINDER BIOTECK E LX 800) adjusted at 620 nm. The microbial inhibition percentage after treatments were quantified using the following equation:1 Inhibition percentage=A-A1/A0×100. where, A: the treatment group absorbance, A1: the blank absorbance, and A0: the control group absorbance.

[3] = tested on: MDA-MB-231 cell line; assay: MTT anti-proliferative assay, MDA-MB-231; type: cell-based, Human; details: for IC50: MDA-MB-231, MTT, 2 days; for Selective index: SI = IC50 normal cells (WISH)/IC50 MDA-MB-231
Description: as §1, §2, §3

[4] = tested on: Candida albicans; assay: Antimicrobial microplate assay (MIC), C. albicans; type: cell-based; details: two values per compound
Description: as §4, §5

[5] = tested on: Streptococcus mutans; assay: Antimicrobial microplate assay (MIC), S. mutans; type: cell-based; details: two values per compound
Description: as §4, §5

[6] = tested on: HepG-2; assay: MTT anti-proliferative assay, HepG-2; type: cell-based, human; details: for IC50: HepG-2, MTT, 2 days; for Selective index: SI = IC50 normal cells (WISH)/IC50 HepG-2
Description: as §1, §2, §3

[7] = tested on: WISH cell line; assay: MTT safety assay on WISH normal cells; type: cell-based, Human; details: 2 days
Description: as §1, §2

[8] = tested on: CaCo-2 cell line; assay: MTT anti-proliferative assay, CaCo-2; type: cell-based, Human; details: for IC50: CaCo-2, MTT, 2 days; for Selective index: SI = IC50 normal cells (WISH)/IC50 CaCo-2
Description: as §1, §2, §3

[9] = tested on: Staphylococcus aureus; assay: Antimicrobial microplate assay (MIC), S. aureus; type: cell-based; details: Staph. aureus, two values per compound
Description: as §4, §5

| Structure (SMILES) | IC50 [1] [µM] | Selective index [1] | MIC ([2]; Escherichia coli) [µM] | MIC [2] [µM] | IC50 ([3]; Homo sapiens, MDA-MB-231, 48 h) [µM] | Selective index [3] | MIC ([4]; Candida albicans) [µM] | MIC [4] | MIC ([5]; Streptococcus mutans) [µM] | MIC [5] [µM] | IC50 ([6]; Homo sapiens, HepG2, 48 h) [µM] | Selective index [6] | IC50 ([7]; Homo sapiens, 48 h) [µM] | IC50 ([8]; Homo sapiens, Caco-2, 48 h) [µM] | Selective index [8] | MIC [9] [µM] | MIC ([9]; Staphylococcus aureus) [µM] | other results |
| --- | --- | --- | --- | --- | --- | --- | --- | --- | --- | --- | --- | --- | --- | --- | --- | --- | --- | --- |
| O=c1ccc2ccccc2o1 [Ct, coumarin] | 260 | 0.6915 | 59 (≈ 8.62 µg/mL) | 58 (≈ 8.48 µg/mL) | 111 | 1.599 | 30 (≈ 4.38 µg/mL) | 29 µM (≈ 4.24 µg/mL) | 240 (≈ 35.1 µg/mL) | 241 (≈ 35.2 µg/mL) | 232 | 0.7613 | 176 | 99.5 | 1.701 | 63 (≈ 9.21 µg/mL) | 62 (≈ 9.06 µg/mL) | – |
| O=C(NCCNc1ccnc2cc(Cl)ccc12)c1cc2ccccc2oc1=O [7b, N-(2-((7-Chloroquinolin-4-yl)amino)ethyl)-2-oxo-2H-chromene-3-carboxamide] | 54.8 | 1.6 and 1.695 | 45 (≈ 17.7 µg/mL) | 43 (≈ 16.9 µg/mL) | 154 | 0.6038 | 28 (≈ 11 µg/mL) | 27 µM (≈ 10.6 µg/mL) | 100 (≈ 39.4 µg/mL) | 103 (≈ 40.6 µg/mL) | 88.7 | 1.049 | 92.9 | 52.8 | 1.76 and 1.764 | 22 (≈ 8.66 µg/mL) | 20 (≈ 7.88 µg/mL) | melting point: 274 to 276 °C; IC50 [8]: 52.8 µM |
| Cn1c2nc3ccccc3c-2c(NCCCNC(=O)c2cc3ccccc3oc2=O)c2ccccc21 [13c, N-(3-((5-methyl-5H-indolo[2,3-b]quinolin-11-yl)amino)propyl)-2-oxo-2H-chromene-3-carboxamide] | 65 | – | – | – | 89.9 | – | – | – | – | – | 71 | – | 95.9 | 84.8 | – | – | – | – |
| COc1cccc2c1C(=O)c1c(O)c3c(c(O)c1C2=O)C[C@@](O)(C(=O)CO)C[C@@H]3O[C@H]1C[C@H](N)[C@H](O)[C@H](C)O1 [DOX, doxorubicin, reference compound] | 3.78 | 0.7653 | – | – | 0.655 | 1.954 | – | – | – | – | 1.18 | 1.653 | 1.76 | 2.91 | 0.6148 | – | – | – |
| O=C(O)c1cc2ccccc2oc1=O [compound 1, coumarin-3-carboxylic acid, reference compound] | 351 | 0.9497 | 20 (≈ 3.8 µg/mL) | 21.76 (≈ 4.14 µg/mL) | 132 | 2.521 | 10 (≈ 1.9 µg/mL) | 9.8 µM (≈ 1.86 µg/mL) | 17 (≈ 3.23 µg/mL) | 16.65 (≈ 3.17 µg/mL) | 924 | 0.3617 | 334 | 1110 | 0.3027 | 8.5 (≈ 1.62 µg/mL) | 8 (≈ 1.52 µg/mL) | IC50 [7]: 334 µM |
| O=C(NCCCNc1ccnc2cc(Cl)ccc12)c1cc2ccccc2oc1=O [7c, N-(3-((7-Chloroquinolin-4-yl)amino)propyl)-2-oxo-2H-chromene-3-carboxamide] | 97.4 | 1.155 | 125 (≈ 51 µg/mL) | 126 (≈ 51.4 µg/mL) | 51 | 2.20 and 2.21 | 31 (≈ 12.6 µg/mL) | 30 µM (≈ 12.2 µg/mL) | 152 (≈ 62 µg/mL) | 150 (≈ 61.2 µg/mL) | 133 | 0.8456 | 112 | 57.3 | 1.969 | 29 (≈ 11.8 µg/mL) | 28 (≈ 11.4 µg/mL) | IC50 [3]: 51 µM |
| Cn1c2nc3ccccc3c-2c(NCCNC(=O)c2cc3ccccc3oc2=O)c2ccccc21 [13b, N-(2-((5-Methyl-5H-indolo[2,3, b]quinolin-11-yl)amino)ethyl)-2-oxo-2H-chromene-3-carboxamide] | – | – | – | – | – | – | – | 0.0011 µM and 0.0014 µM | – | – | – | – | – | – | – | – | – | – |
| O=C(Nc1ccc(Cc2ccc(Nc3ccnc4cc(Cl)ccc34)cc2)cc1)c1cc2ccccc2oc1=O [7e, N-(4-(4-((7-Chloroquinolin-4-yl)amino)benzyl)phenyl)-2-oxo-2H-chromene-3-carboxamide] | 152 | 0.6129 | 19 (≈ 10.1 µg/mL) | 16 (≈ 8.51 µg/mL) | 70.5 | 1.32 | 25 (≈ 13.3 µg/mL) | 26 µM (≈ 13.8 µg/mL) | 160 (≈ 85.1 µg/mL) | 162 (≈ 86.2 µg/mL) | 351 | 0.2658 | 93.1 | 86.3 | 1.079 | 24 (≈ 12.8 µg/mL) | 25 (≈ 13.3 µg/mL) | – |
| O=C(Nc1ccc(Nc2ccnc3cc(Cl)ccc23)cc1)c1cc2ccccc2oc1=O [7d, N-(4-((7-Chloroquinolin-4-yl)amino)phenyl)-2-oxo-2H-chromene-3-carboxamide] | – | 0.67 and 0.6789 | 46 (≈ 20.3 µg/mL) | 45 (≈ 19.9 µg/mL) | 103 | 1.351 | 62 (≈ 27.4 µg/mL) | 60 µM (≈ 26.5 µg/mL) | 130 (≈ 57.4 µg/mL) | 132 (≈ 58.3 µg/mL) | 82.8 | 1.67 and 1.671 | 138 | 51.6 | 2.666 | 30 (≈ 13.3 µg/mL) | 29 (≈ 12.8 µg/mL) | IC50 [6]: 82.8 µM; IC50 [8]: 52 µM |
